Laboratory results: ChEMBL document CHEMBL4118139, “Novel naphthyloxy derivatives - Potent histamine H3 receptor ligands. Synthesis and pharmacological evaluation” (Bioorg Med Chem, 2018)
Calls of active or inactive are those of the source. The calls are words filed in the database; no cut-off is given here.

What was measured:
Mus musculus [1] = assay: Neurotoxicity in albino CF-1 mouse at 65 mg/kg after 0.25 hrs by rotarod test; assay type: toxicity, organism-based; settings: in vivo
Rattus norvegicus [2] = assay: Anticonvulsant activity in po dosed Sprague-Dawley rat assessed as protection against maximal electroshock-induced seizures after 1 hr; assay type: functional
[3] = target: D(3) dopamine receptor (Homo sapiens) (UniProt P35462); assay: Displacement of [3H]-spiperone from human dopamine D3 receptor expressed in CHO cell membranes at 1 uM relative to haloperidol
Rattus norvegicus [4] = assay: Anticonvulsant activity in Sprague-Dawley rat assessed as protection against maximal electroshock-induced seizures at 30 mg/kg, po after 2 hrs; assay type: functional, organism-based
[5] = target: D(2) dopamine receptor (Homo sapiens) (UniProt P14416); assay: Displacement of [3H]-spiperone from human dopamine D2 receptor expressed in CHO cell membranes at 1 uM relative to haloperidol
Mus musculus [6] = assay: Neurotoxicity in albino CF-1 mouse at 65 mg/kg after 1 hr by rotarod test; assay type: toxicity, organism-based; settings: in vivo
[7] = target: 5-hydroxytryptamine receptor 2A (Homo sapiens, UniProt P28223); assay: Displacement of [3H]-ketanserin from human 5-HT2A receptor expressed in CHO cell membranes after 1 hr
[8] = target: 5-hydroxytryptamine receptor 7 (Homo sapiens, UniProt P34969); assay: Displacement of [3H]-5-carboxyamidotryptamine from human 5-HT7 receptor expressed in HEK293 cell membranes after 1 hr
Mus musculus [9] = assay: Neurotoxicity in albino CF-1 mouse at 30 mg/kg, ip after 2 hrs by rotarod test; assay type: toxicity, organism-based; settings: in vivo
[10] = target: Histamine H1 receptor (Homo sapiens) (UniProt P35367); assay: Displacement of [3H]-pyrilamine from human histamine H1 receptor expressed in CHO cell membranes at 1 uM relative to chlorpheniramine
[11] = Therapeutic index, ratio of ip dosed albino CF-1 mouse TD50 to ip dosed albino CF-1 mouse ED50 for 32 mA current-induced 6 Hz psychomotor test; assay type: toxicity, organism-based; settings: in vivo, read-out: TI
Rattus norvegicus [12] = assay: Anticonvulsant activity in Sprague-Dawley rat assessed as protection against maximal electroshock-induced seizures at 30 mg/kg, po after 0.25 hrs; assay type: functional, organism-based
Mus musculus [13] = assay: Neurotoxicity in albino CF-1 mouse at 50 mg/kg after 0.25 hrs by rotarod test; assay type: toxicity, organism-based; settings: in vivo
Mus musculus [14] = assay: Neurotoxicity in albino CF-1 mouse assessed as increase in subcutaneous pentylenetetrazole-induced continuous seizures at 50 mg/kg, ip measured after 0.5 hrs; assay type: toxicity, organism-based; settings: in vivo
Mus musculus [15] = assay: Neurotoxicity in albino CF-1 mouse at 50 mg/kg, ip after 1 hr by rotarod test; assay type: toxicity, organism-based; settings: in vivo
Mus musculus [16] = assay: Anticonvulsant activity in albino CF-1 mouse assessed as protection against maximal electroshock-induced seizures at 50 mg/kg, ip after 0.25 hrs; assay type: functional, organism-based
Mus musculus [17] = assay: Neurotoxicity in albino CF-1 mouse at 50 mg/kg after 4 hrs by rotarod test; assay type: toxicity, organism-based; settings: in vivo
HEK293 = assay: Cytotoxicity against HEK293 cells assessed as reduction in cell viability after 72 hrs by MTS assay; assay type: cell-based; settings: Homo sapiens, HEK293, 72 h
Mus musculus [18] = assay: Anticonvulsant activity in albino CF-1 mouse assessed as protection against subcutaneous pentylenetetrazole-induced seizures at 50 mg/kg, ip measured after 4 hrs; assay type: functional, organism-based
Mus musculus [19] = assay: Neurotoxicity in albino CF-1 mouse at 30 mg/kg, ip after 1 hr by rotarod test; assay type: toxicity, organism-based; settings: in vivo
Mus musculus [20] = assay: Anticonvulsant activity in ip dosed albino CF-1 mouse assessed as protection against 32 mA current-induced seizure after 1 hr by 6 Hz psychomotor test; assay type: functional; settings: CF-1, ip
Rattus norvegicus [21] = assay: Anticonvulsant activity in Sprague-Dawley rat assessed as protection against maximal electroshock-induced seizures at 30 mg/kg, ip after 0.25 hrs; assay type: functional, organism-based
Mus musculus [22] = assay: Anticonvulsant activity in albino CF-1 mouse assessed as protection against 44 mA current-induced seizure at 50 mg/kg, ip after 2 hrs by 6 Hz psychomotor test; assay type: functional, organism-based
[23] = target: D(1A) dopamine receptor (Homo sapiens) (UniProt P21728); assay: Displacement of [3H]-SCH23390 from human dopamine D1 receptor expressed in HEK293 cell membranes at 1 uM relative to fluphenazin
[24] = Neurotoxicity in po dosed Sprague-Dawley rat after 0.25 hrs by rotarod test; assay type: toxicity, organism-based; settings: in vivo
Rattus norvegicus [25] = assay: Anticonvulsant activity in Sprague-Dawley rat assessed as protection against maximal electroshock-induced seizures at 30 mg/kg, ip after 1 hr; assay type: functional, organism-based
Mus musculus [26] = assay: Anticonvulsant activity in albino CF-1 mouse assessed as protection against 44 mA current-induced seizure at 50 mg/kg, ip after 4 hrs by 6 Hz psychomotor test; assay type: functional, organism-based
Rattus norvegicus [27] = assay: Anticonvulsant activity in ip Sprague-Dawley rat assessed as protection against subcutaneous pentylenetetrazole-induced seizures measured after 0.25 hrs; assay type: functional
[28] = Therapeutic index, ratio of po dosed Sprague-Dawley rat TD50 to po dosed Sprague-Dawley rat ED50 for MES assay; assay type: toxicity, organism-based; settings: in vivo, read-out: TI
Mus musculus [29] = assay: Anticonvulsant activity in albino CF-1 mouse assessed as protection against maximal electroshock-induced seizures at 50 mg/kg, ip after 1 hr; assay type: functional, organism-based
Salmonella typhimurium [30] = assay: Mutagenicity in Salmonella typhimurium TA100 assessed as increase in number of revertants at 10 uM after 90 mins by Ames test; assay type: toxicity, organism-based; settings: salmonella enterica subsp. enterica serovar typhimurium, 1.5 h
Mus musculus [31] = assay: Neurotoxicity in albino CF-1 mouse at 50 mg/kg, ip after 0.5 hrs by rotarod test; assay type: toxicity, organism-based; settings: in vivo
Mus musculus [32] = assay: Neurotoxicity in albino CF-1 mouse at 50 mg/kg, ip after 4 hrs by rotarod test; assay type: toxicity, organism-based; settings: in vivo
Salmonella typhimurium [33] = assay: Mutagenicity in Salmonella typhimurium TA100 assessed as increase in number of revertants at 1 uM after 90 mins by Ames test; assay type: toxicity, organism-based; settings: salmonella enterica subsp. enterica serovar typhimurium, 1.5 h
[34] = target: 5-hydroxytryptamine receptor 6 (Homo sapiens, UniProt P50406); assay: Displacement of [3H]-LSD from human 5-HT6 receptor expressed in HEK293 cell membranes after 1 hr
Rattus norvegicus [35] = assay: Anticonvulsant activity in Sprague-Dawley rat assessed as protection against maximal electroshock-induced seizures at 30 mg/kg, ip after 0.5 hrs; assay type: functional, organism-based
[36] = Therapeutic index, ratio of ip dosed Sprague-Dawley rat TD50 to ip dosed Sprague-Dawley rat ED50 for MES assay; assay type: toxicity, organism-based; settings: in vivo, read-out: TI
Mus musculus [37] = assay: Anticonvulsant activity in albino CF-1 mouse assessed as protection against maximal electroshock-induced seizures at 50 mg/kg, ip after 4 hrs; assay type: functional, organism-based
Mus musculus [38] = assay: Analgesic activity in ip dosed albino Swiss CD1 mouse assessed reduction in formalin-induced inflammatory pain by measuring reduction in time spent in licking pretreated prior to formalin injection measured at 15 to 30 mins post formalin injection; assay type: functional
Mus musculus [39] = assay: Anticonvulsant activity in ip dosed albino CF-1 mouse assessed as protection against 44 mA current-induced seizure after 0.25 hrs by 6 Hz psychomotor test; assay type: functional; settings: CF-1, ip
Mus musculus [40] = assay: Induction of sedative effect in albino Swiss CD-1 mouse at 15 mg/kg, ip; assay type: organism-based; settings: in vivo
CYP3A4 = CYP3A4 (Homo sapiens, UniProt P08684); assay: Inhibition of CYP3A4 (unknown origin) at 25 uM by CYP3A4 P450-Glo assay; assay type: ADME
Mus musculus [41] = assay: Anticonvulsant activity in albino CF-1 mouse assessed as protection against 32 mA current-induced seizure at 50 mg/kg, ip after 4 hrs by 6 Hz psychomotor test; assay type: functional, organism-based

Sequence of 5-hydroxytryptamine receptor 7 (P34969 whole entry): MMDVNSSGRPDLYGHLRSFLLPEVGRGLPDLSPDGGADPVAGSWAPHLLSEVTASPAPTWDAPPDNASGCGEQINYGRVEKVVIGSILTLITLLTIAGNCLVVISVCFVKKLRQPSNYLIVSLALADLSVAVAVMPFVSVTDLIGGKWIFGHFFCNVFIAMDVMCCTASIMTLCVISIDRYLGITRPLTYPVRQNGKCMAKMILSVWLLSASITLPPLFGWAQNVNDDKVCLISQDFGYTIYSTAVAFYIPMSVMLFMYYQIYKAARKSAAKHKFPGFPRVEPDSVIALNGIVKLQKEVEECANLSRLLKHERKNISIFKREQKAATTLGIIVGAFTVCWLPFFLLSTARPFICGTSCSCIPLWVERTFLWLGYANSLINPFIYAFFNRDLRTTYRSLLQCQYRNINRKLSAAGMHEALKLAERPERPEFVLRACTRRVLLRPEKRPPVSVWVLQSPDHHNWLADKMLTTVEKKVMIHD
Sequence of Histamine H1 receptor (Homo sapiens) (P35367 whole entry): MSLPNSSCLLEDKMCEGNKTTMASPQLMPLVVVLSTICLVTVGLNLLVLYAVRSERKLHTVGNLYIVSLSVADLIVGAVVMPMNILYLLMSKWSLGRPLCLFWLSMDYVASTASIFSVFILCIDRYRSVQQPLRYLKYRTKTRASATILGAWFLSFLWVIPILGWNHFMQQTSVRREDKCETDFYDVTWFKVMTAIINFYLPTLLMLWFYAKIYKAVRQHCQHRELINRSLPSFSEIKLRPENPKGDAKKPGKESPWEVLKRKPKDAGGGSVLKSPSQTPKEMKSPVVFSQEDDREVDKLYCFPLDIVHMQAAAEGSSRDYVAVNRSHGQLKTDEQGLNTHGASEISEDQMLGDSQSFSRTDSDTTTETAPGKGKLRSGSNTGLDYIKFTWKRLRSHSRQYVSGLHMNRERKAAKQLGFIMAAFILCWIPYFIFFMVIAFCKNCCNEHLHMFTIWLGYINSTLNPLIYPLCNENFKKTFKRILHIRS
Sequence of D(1A) dopamine receptor (Homo sapiens) (P21728 whole entry): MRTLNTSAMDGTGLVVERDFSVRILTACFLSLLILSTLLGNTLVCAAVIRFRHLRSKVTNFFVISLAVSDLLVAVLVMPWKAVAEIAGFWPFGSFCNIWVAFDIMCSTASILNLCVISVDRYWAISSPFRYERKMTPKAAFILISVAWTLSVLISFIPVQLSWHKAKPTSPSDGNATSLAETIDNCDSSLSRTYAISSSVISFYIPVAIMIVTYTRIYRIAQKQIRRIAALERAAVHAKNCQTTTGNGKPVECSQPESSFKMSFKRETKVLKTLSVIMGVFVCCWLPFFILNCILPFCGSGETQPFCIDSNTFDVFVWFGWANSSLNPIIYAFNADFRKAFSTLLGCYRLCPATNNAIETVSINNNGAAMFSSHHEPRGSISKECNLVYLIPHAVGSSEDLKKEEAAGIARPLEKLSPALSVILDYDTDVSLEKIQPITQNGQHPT
Sequence of CYP3A4 (P08684 whole entry): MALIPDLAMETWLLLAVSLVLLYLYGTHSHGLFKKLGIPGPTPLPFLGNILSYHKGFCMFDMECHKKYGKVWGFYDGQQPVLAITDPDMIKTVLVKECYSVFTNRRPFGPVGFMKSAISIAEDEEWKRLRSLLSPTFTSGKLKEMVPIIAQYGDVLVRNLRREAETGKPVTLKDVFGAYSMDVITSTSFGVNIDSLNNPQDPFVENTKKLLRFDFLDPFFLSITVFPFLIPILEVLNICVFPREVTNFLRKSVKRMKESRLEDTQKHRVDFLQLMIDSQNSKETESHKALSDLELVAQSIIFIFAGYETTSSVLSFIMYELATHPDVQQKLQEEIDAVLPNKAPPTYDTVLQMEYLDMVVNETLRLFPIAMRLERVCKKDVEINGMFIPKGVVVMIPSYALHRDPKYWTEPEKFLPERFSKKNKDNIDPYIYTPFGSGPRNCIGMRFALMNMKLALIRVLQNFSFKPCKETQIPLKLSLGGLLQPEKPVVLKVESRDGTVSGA
Sequence of D(2) dopamine receptor (Homo sapiens) (P14416 whole entry): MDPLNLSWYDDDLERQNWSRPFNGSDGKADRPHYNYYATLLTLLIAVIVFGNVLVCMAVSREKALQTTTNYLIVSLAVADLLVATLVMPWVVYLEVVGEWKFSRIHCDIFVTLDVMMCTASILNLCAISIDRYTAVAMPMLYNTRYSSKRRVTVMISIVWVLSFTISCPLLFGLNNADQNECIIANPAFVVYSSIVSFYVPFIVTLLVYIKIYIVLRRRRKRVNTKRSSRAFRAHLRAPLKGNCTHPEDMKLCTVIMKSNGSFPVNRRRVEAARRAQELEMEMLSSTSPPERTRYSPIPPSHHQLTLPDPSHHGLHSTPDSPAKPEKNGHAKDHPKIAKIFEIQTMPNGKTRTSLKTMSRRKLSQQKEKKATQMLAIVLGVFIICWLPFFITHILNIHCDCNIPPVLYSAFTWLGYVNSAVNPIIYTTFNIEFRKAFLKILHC
Sequence of 5-hydroxytryptamine receptor 2A (P28223 whole entry): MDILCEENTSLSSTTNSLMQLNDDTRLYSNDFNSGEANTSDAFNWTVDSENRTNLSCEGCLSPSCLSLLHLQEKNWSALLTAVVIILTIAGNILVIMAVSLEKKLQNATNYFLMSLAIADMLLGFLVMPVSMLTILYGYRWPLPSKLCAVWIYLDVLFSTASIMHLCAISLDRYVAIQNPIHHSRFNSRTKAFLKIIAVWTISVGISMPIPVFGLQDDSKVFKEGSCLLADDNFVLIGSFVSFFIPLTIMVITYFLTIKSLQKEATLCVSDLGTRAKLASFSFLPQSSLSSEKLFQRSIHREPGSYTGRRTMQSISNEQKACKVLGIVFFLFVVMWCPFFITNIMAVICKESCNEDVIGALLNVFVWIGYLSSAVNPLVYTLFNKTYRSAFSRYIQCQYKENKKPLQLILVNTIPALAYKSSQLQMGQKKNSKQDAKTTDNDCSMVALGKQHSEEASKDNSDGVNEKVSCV
Sequence of D(3) dopamine receptor (Homo sapiens) (P35462 whole entry): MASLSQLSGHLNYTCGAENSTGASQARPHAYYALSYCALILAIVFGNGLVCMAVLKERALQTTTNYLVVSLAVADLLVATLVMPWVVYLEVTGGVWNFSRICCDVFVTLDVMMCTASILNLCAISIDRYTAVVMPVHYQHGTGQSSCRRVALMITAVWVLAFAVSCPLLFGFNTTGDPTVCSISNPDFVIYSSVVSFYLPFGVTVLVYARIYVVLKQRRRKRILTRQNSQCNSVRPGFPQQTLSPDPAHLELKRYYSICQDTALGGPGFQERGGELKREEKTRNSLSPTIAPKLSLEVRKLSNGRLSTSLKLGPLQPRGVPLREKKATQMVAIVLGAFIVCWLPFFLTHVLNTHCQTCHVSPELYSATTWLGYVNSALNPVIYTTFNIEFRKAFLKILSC
Sequence of 5-hydroxytryptamine receptor 6 (P50406 whole entry): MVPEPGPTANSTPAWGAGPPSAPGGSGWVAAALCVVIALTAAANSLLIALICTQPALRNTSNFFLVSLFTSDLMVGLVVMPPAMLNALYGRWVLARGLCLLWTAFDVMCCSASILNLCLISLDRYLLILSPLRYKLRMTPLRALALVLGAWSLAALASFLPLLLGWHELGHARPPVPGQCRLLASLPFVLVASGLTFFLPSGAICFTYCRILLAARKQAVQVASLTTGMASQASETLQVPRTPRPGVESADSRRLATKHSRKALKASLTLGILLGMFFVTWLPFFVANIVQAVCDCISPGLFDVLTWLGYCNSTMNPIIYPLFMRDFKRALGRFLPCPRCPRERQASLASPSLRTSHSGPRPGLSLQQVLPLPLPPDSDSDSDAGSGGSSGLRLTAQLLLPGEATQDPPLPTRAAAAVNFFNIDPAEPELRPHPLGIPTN

**Q.** What does the source list for `c1ccc2c(OCCCCCN3CCCCC3)cccc2c1`?
**A.** Activity (Mus musculus [1]): Non-Toxic; ED50 (Rattus norvegicus [2]): 78.1 mg/kg; inhibition [3]: 12%; Activity (Rattus norvegicus [4]): inactive; inhibition [5]: 2%; Activity (Mus musculus [6]): Non-Toxic; Ki [7]: 3900 nM; Ki [8]: 2310 nM; Activity (Mus musculus [9]): Non-Toxic; inhibition [10]: 17%; selectivity ratio [11]: 2.9; Activity (Rattus norvegicus [12]): inactive; Activity (Mus musculus [13]): Non-Toxic; Activity (Mus musculus [14]): Non-Toxic; Activity (Mus musculus [15]): Non-Toxic; Activity (Mus musculus [16]): Active; Activity (Mus musculus [17]): Non-Toxic; IC50 (HEK293): > 50000 nM; Activity (Mus musculus [18]): inactive; Activity (Mus musculus [19]): Non-Toxic; ED50 (Mus musculus [20]): 33.1 mg/kg; Activity (Rattus norvegicus [21]): Active; Activity (Mus musculus [22]): inactive; inhibition [23]: 6.7%; TD50 at 0.25 h [24]: > 500 mg/kg; Activity (Rattus norvegicus [25]): Active; Activity (Mus musculus [26]): inactive; ED50 (Rattus norvegicus [27]): > 60.6 mg/kg; selectivity ratio [28]: > 6.4; Activity (Mus musculus [29]): Active; Activity (Salmonella typhimurium [30]): Non-Toxic; Activity (Mus musculus [31]): Non-Toxic; Activity (Mus musculus [32]): Non-Toxic; Activity (Salmonella typhimurium [33]): Non-Toxic; Ki [34]: 2540 nM; Activity (Rattus norvegicus [35]): Active; selectivity ratio [36]: 3.4; Activity (Mus musculus [37]): inactive; ED50 (Mus musculus [38]): 30 mg/kg; ED50 (Mus musculus [39]): 57.2 mg/kg; Activity (Mus musculus [40]): Toxic; inhibition at 25 µM (CYP3A4): 50%; Activity (Mus musculus [41]): inactive
